Assays:
NUGC-4 strain = experiment: MTT assay, NUGC-4 strain; format: cell-based; details: 72 hours, peptide concentrations up to 250 μM
Experimental: (§1) Specifically, first, cells plated in a 96-well microplate such that the density thereof became 5×10^3 cells/well were cultured for one night in a culture solution having the same composition as those in the reference examples. […] After the culturing, an MTT-containing PBS solution was added to the culture solution, and the mixture was incubated for 4 hours. Then, formazan which was generated by putting 100 μL of isopropanol (containing 34 (v/v) % of hydrochloric acid) into each of the wells was dissolved. The absorbance of each of the wells of the microplate at 570 nm was measured using a microplate reader. As controls, culturing was performed in the same manner except that no peptide was added to the strains, an MTT assay was performed thereon, and the absorbance at 570 nm was measured (untreated).
(§2) In the method for measuring the viable cell counts, cells were cultured for 3 days similarly to Example 1 except that a 25 μM (10 μM for an HL-60 strain, a K562 strain, and a U937 strain) culture solution containing a control peptide or a peptide 1 was used, and the viable cell counts were measured. As a comparison, culturing was performed similarly to the above using a culture solution containing no peptide, and the viable cell counts were measured (untreated).
(§3) In addition, in the method for performing an MTT assay, cells were cultured for 72 hours similarly to Example 2 except that a peptide to be added to a strain was set to a control peptide or a peptide 1 at 25 μM (10 μM for an HL-60 strain, a K562 strain, and a U937 strain), an MTT assay was performed thereon, and the absorbance at 570 nm was measured. As a comparison, culturing was performed similarly to the above using a culture solution containing no peptide, and the MTT assay was performed thereon (untreated).
(§4) Specifically, the cells were cultured for 72 hours similarly to Example 2 except that a peptide to be added to a cell was set to a peptide 1, 2, 5, or 6, MTT assays were performed thereon, and the absorbance at 570 nm was measured. As a comparison, culturing was performed similarly to the above using a culture solution containing no peptide, and the MTT assay was performed thereon (untreated).
(§5) Specifically, the cells were cultured for 72 hours similarly to Example 2 except that peptides to be added to cell strains were set to peptides 7 to 14, MTT assays were performed thereon, and the absorbance at 570 nm was measured. […]
(§6) Specifically, the cells were cultured for 72 hours similarly to Example 2 except that a peptide to be added to a cell strain was set to a peptide 15 or 16, an MTT assay was performed thereon, and the absorbance at 570 nm was measured. […]

MKN45 strain = experiment: MTT assay, MKN45 strain; format: cell-based; details: 72 hours, peptide concentrations up to 250 μM
Experimental: as §1, §2, §3, §4, §5, §6

KATO-III strain [1] = experiment: MTT assay, KATO-III strain; format: cell-based; details: peptide 0 μM to 100 μM, 72 hours
Experimental: (§7) Specifically, first, cells plated in a 96-well microplate such that the density thereof became 5×10^3 cells/well were cultured for one night in a culture solution having the same composition as those in the reference examples. Thereafter, the culture solution was exchanged with 100 μL of a culture solution of which the concentration of peptides is 0 μM to 100 μM for culturing for 72 hours. After the culturing, an MTT-containing PBS solution was added to the culture solution, and the mixture was incubated for 4 hours. Then, formazan which was generated by putting 100 μL of isopropanol (containing 34 (v/v) % of hydrochloric acid) into each of the wells was dissolved. The absorbance of each of the wells of the microplate at 570 nm was measured using a microplate reader. As controls, culturing was performed in the same manner except that no peptide was added to the strains, an MTT assay was performed thereon, and the absorbance at 570 nm was measured (untreated).

K562 strain [2] = experiment: Viable cell counts (Trypan blue staining), K562 strain; format: cell-based; details: vs untreated
Experimental: (§8) Specifically, cells plated such that the density thereof became 1×10^4 cells/3.5 cm well for one plate (6 wells/plate) for each cell strain were cultured for one night in a culture solution having the same composition as those of the culture solutions described in the reference examples. After culturing of 1 well out of the 6 wells was completed, Trypan blue staining was performed on the 1 well, and viable cell counts were counted. The remaining 5 wells were cultured after exchanging the culture solution with a liquid mixture of a Lipofectamine (registered trademark) reagent (12.5 μL/well) and a culture solution (2 mL/well) of which the shRNA concentration became 2.5 μg/well. Then, Trypan blue staining was performed on 1 well 24 hours after the exchange of a culture medium, 1 well 48 hours after the exchange of a culture medium, and the remaining 1 well 72 hours after the exchange of a culture medium, and the viable cell counts were counted. As a control, the viable cell counts were measured (untreated) by performing the culturing similarly to the above except that a culture medium was exchanged with a culture solution to which no shRNA was added.
(§9) Specifically, the viable cell counts were measured after culturing the cells similarly to Example 1 except that a 5 μM culture solution containing a control peptide, a peptide 1, or a peptide 2 was used instead of the culture solution (2 mL/well) of which the shRNA concentration was 2.5 μg/well. The viable cell counts were measured (untreated) by performing the culturing similarly to Example 1 using a culture solution containing no peptide 2, as a control.

HL-60 strain [3] = experiment: Viable cell counts (Trypan blue staining), HL-60 strain; format: cell-based; details: vs untreated
Experimental: as §8, §9

RPMI8226 strain [4] = experiment: Viable cell counts (Trypan blue staining), RPMI8226 strain; format: cell-based; details: 5 μM peptide, up to 72 hours, vs untreated
Experimental: as §8, with “added. […]” for “added.”

293 FLG/LIX1L = experiment: MTT assay, 293 FLG/LIX1L cells; format: cell-based; details: 72 hours, peptide concentrations up to 250 μM
Experimental: as §1, §2, §3, §4, §5, §6

HL-60 strain [5] = experiment: MTT assay, HL-60 strain; format: cell-based; details: peptide 0 μM to 100 μM, 72 hours
Experimental: as §7, §2, §3

OCUM-1 strain [6] = experiment: MTT assay, OCUM-1 strain; format: cell-based; details: peptide 0 μM to 100 μM, 72 hours
Experimental: as §7

293 FLG = experiment: MTT assay, 293 FLG cells; format: cell-based; details: 72 hours, peptide concentrations up to 250 μM
Experimental: as §1, §2, §3, §4, §5, §6

RPMI8226 strain [7] = experiment: MTT assay, RPMI8226 strain; format: cell-based; details: peptide 0 μM to 100 μM, 72 hours
Experimental: as §7
(§10) Specifically, the cells were cultured for 72 hours similarly to Example 2 except that a peptide to be added to a cell strain was set to peptide 1, 3, or 4, or a control peptide, an MTT assay was performed thereon, and the absorbance at 570 nm was measured.

K562 strain [8] = experiment: MTT assay, K562 strain; format: cell-based; details: 72 hours
Experimental: as §7, §10, §2, §3, §4
as §4, with “that peptides” for “that a peptide”, “to” for “to a”, “cell strains were” for “cell was”, “to peptides 7 to 14,” for “to a peptide 1, 2, 5, or 6,”
Specifically, the cells were cultured for 72 hours similarly to Example 2 except that a peptide to be added to a cell strain was set to a peptide 15 or 16, an MTT assay was performed thereon, and the absorbance at 570 nm was measured. As a comparison, culturing was performed similarly to the above using a culture solution containing no peptide, and the MTT assay was performed thereon (untreated).

KATO-III strain [9] = experiment: Viable cell counts (Trypan blue staining), KATO-III strain; format: cell-based; details: shRNA 2.5 μg/well, vs untreated
Experimental: as §8

LIX1L genes = experiment: RT-PCR of LIX1L gene expression after shRNA treatment; format: cell-based, human; details: HL-60, K562, KATO-III and OCUM-1 strains; shRNA 2.5 μg/well; after 72 hours
Experimental: In the RT-PCR, first, RNA was extracted and purified from the collected cells using RNeasy Mini Kit (manufactured by QIAGEN). The concentration of total RNA was measured using a spectrophotometer. A reverse transcription reaction was performed using First Strand cDNA Synthesis Kit (manufactured by Roche Life Science) for RT-PCR (AMV), for synthesizing cDNA, in 20 μL of a reaction solution containing 1 μg of total RNA and a random primer for 10 minutes at 25° C., subsequently for 45 minutes at 42° C., and then for 2 minutes at 95° C., to deactivate reverse transcriptase. In all PCRs, TaqMan (registered trademark) polymerase (manufactured by Life Technologies Ltd.) was used. […] The signal intensity of a band of LIX1L in an ethidium bromide staining image was measured using densitometry and a relative value of the signal intensity was calculated. In addition, in all quantitative PCR reactions, SYBR (registered trademark) Green I was used. Quantitative determination was performed in 25 μL of a reaction solution containing the synthesized cDNA and a LIX1L primer using an ABI PRISM 7700 Sequence detector (manufactured by Perkin-Elmer/Applied Biosystems). […]

OCUM-1 strain [10] = experiment: Viable cell counts (Trypan blue staining), OCUM-1 strain; format: cell-based; details: shRNA 2.5 μg/well, vs untreated
Experimental: as §8

[11] = shRNA 2.5 μg/well, after 48 hours and 72 hours
[12] = shRNA 2.5 μg/well, until 24 hours

YGRKKRRQRRR-X-CYVTLPGGSC-NH2 (YGRKKRRQRRRXCYVTLPGGSC; ε-aminocaproic acid linker; C-terminal amide; peptide 2)
cell proliferation (MTT assay, absorbance at 570 nm) (NUGC-4 strain): not inhibited
cell proliferation (MTT assay, absorbance at 570 nm) (MKN45 strain): not inhibited
absorbance at 570 nm (MTT assay), influence on cell proliferation (KATO-III strain [1]): no particular change in the absorbance at 570 nm
viable cell counts (K562 strain [2]; 5 μM peptide, after 72 hours): the same as those in an untreated case
viable cell counts (HL-60 strain [3]; 5 μM peptide, after 72 hours): the same as those in an untreated case
viable cell counts (RPMI8226 strain [4]): the same as those in an untreated case
cell proliferation (MTT assay, absorbance at 570 nm) (293 FLG/LIX1L): not inhibited
absorbance at 570 nm (MTT assay), influence on cell proliferation (HL-60 strain [5]): no particular change in the absorbance at 570 nm
absorbance at 570 nm (MTT assay), influence on cell proliferation (OCUM-1 strain [6]): no particular change in the absorbance at 570 nm
cell proliferation (MTT assay, absorbance at 570 nm) (293 FLG): not inhibited
absorbance at 570 nm (MTT assay), influence on cell proliferation (RPMI8226 strain [7]): no particular change in the absorbance at 570 nm
cell proliferation (MTT assay, absorbance at 570 nm) (K562 strain [8]; peptide concentrations up to 250 μM): not inhibited
absorbance at 570 nm (MTT assay), influence on cell proliferation (K562 strain [8]; peptide 0 μM to 100 μM): no particular change in the absorbance at 570 nm

LIX1L shRNA #2: shRNA with respect to LIX1L genes; base sequence shown in FIG. 5B (DNA GAGTCCCGTGGTGCTGACTTAATTCAAGAGATTAAGTCAGCACCACGGGACTCTTTTTT)
viable cell counts (KATO-III strain [9]; after 48 hours and 72 hours): decreased more clearly than that of the untreated cells
viable cell counts (KATO-III strain [9]; until 24 hours): no particular difference
viable cell counts (K562 strain [2]; [11]): decreased more clearly than that of the untreated cells
viable cell counts (K562 strain [2]; [12]): no particular difference
viable cell counts (HL-60 strain [3]; [11]): decreased more clearly than that of the untreated cells
viable cell counts (HL-60 strain [3]; [12]): no particular difference
expression of LIX1L genes (RT-PCR) (LIX1L genes): hardly observed
viable cell counts (OCUM-1 strain [10]; after 48 hours and 72 hours): decreased more clearly than that of the untreated cells
viable cell counts (OCUM-1 strain [10]; until 24 hours): no particular difference

LIX1L shRNA #1: shRNA with respect to LIX1L genes; base sequence shown in FIG. 5A (DNA GAGGAGGTGTTGGCTCATTATTTTCAAGAGAAATAATGAGCCAACACCTCCTCTTTTTT)
viable cell counts (KATO-III strain [9]; after 48 hours and 72 hours): decreased more clearly than that of the untreated cells
viable cell counts (KATO-III strain [9]; until 24 hours): no particular difference
viable cell counts (K562 strain [2]; [11]): decreased more clearly than that of the untreated cells
viable cell counts (K562 strain [2]; [12]): no particular difference
viable cell counts (HL-60 strain [3]; [11]): decreased more clearly than that of the untreated cells
viable cell counts (HL-60 strain [3]; [12]): no particular difference
expression of LIX1L genes (RT-PCR) (LIX1L genes): hardly observed
viable cell counts (OCUM-1 strain [10]; after 48 hours and 72 hours): decreased more clearly than that of the untreated cells
viable cell counts (OCUM-1 strain [10]; until 24 hours): no particular difference
